This is an account of results in paper PMC11208559 (Scientific Reports, 2024).

Broadly, the half-life is how long it takes for the measured level to halve. High values mean slow decline, low ones rapid decline. By logD is commonly meant the decadic logarithm of the distribution of all forms, ionised or not, between an organic phase and buffer at a given pH. Low values mean a more hydrophilic compound, high ones a more lipophilic compound.

Series [1] has as its system CD-1 mice. Put plainly: Morphine anti-nociceptive tolerance and tolerance rescue (tail flick). As to conditions: for A50 of morphine, Day 1 of tolerance regimen / A50 of morphine, Day 4 of tolerance regimen: twice daily 1–10 mg/kg morphine s.c., 95% CI in parentheses. Format: in vivo. The protocol:
(§1) Pre-injection tail-flick baselines were determined in a 52 °C tail-flick assay with a 10-s cutoff time (method also reported in Ref.[13]). […] No animals were excluded from these studies.

In series [2] the test system is CD-1 mice. Put plainly: HIV peripheral neuropathy (gp120), mechanical threshold, morphine anti-nociception. The note with it: for A50 (morphine anti-nociceptive potency), HIV neuropathy: %MPE, 95% CI in parentheses. The class given is in vivo. The protocol: Mechanical threshold baselines were measured prior to any treatment on the left hind paw using von Frey filaments. HIV peripheral neuropathy was induced by intrathecal injection of gp120 IIIb protein (SPEED BioSystems, Gaithersburg, MD, Cat# YCP1549, 15 ng/μl in 0.1 M PBS and 0.1% BSA, 7-μl volume) using our previously established protocol[13] on days 1, 3, and 5. On day 20 a second mechanical threshold baseline was measured on the left hind paw using von Frey filaments and then KU-32 or Vehicle was injected i.t with a 24-h treatment time. […] . No animals were excluded from these studies.

The test system of series [3] is CD-1 mice. Put plainly: 52 °C tail-flick assay, morphine anti-nociception after Hsp90 inhibitor treatment. The class given is in vivo. The protocol:
as §1
On the technique in general: In hot-plate and tail-flick tests a longer latency is read as antinociception.

Series [4] relates to CD-1 mice. Put plainly: Post-surgical paw incision, mechanical allodynia (von Frey), morphine anti-nociception. Format: in vivo. As to the method:
Mechanical thresholds were determined prior to surgery using calibrated von Frey filaments (Ugo Basile, Varese, Italy) with the up-down method and four measurements after the first response per mouse as in Ref.[27] and our previously published work (e.g. Ref.[28]). The mice were housed in a homemade apparatus with Plexiglas walls and ceiling and a wire mesh floor (3-inch wide 4-inch long 3-inch high with 0.25-inch wire mesh). The surgery was then performed by anesthesia with ~ 2% isoflurane in standard air, preparation of the left plantar hind paw with iodine and 70% ethanol, and a 5-mm incision made through the skin and fascia with a no. 11 scalpel. The muscle was elevated with curved forceps leaving the origin and insertion intact, and the muscle was split lengthwise using the scalpel. The wound was then closed with 5–0 polyglycolic acid sutures. Mice were then injected with inhibitor or Vehicle control and left to recover for 24 h. Our intrathecal (i.t.) injection protocol is reported in Refs.[13],[29]; briefly, the injection was made in awake and restrained animals with a 10 μL Hamilton syringe and 30 g needle (5–7 μL volume) between the L5-L6 vertebrae at a 45° angle, with placement validated by tail twitch. Since the injection was made through skin with no incision or other surgical intervention, repeated injection protocols were performed the same way. The next day, the mechanical threshold was again determined as described above. […] . No animals were excluded from these studies.

Series [5] has as its system CD-1 mice. Briefly: Opioid induced constipation (fecal production over 6 h).
In series [6] the test system is CD-1 mice. Briefly: Conditioned place preference (morphine reward). The note with it: Vehicle i.t. over 4 days with 3.2–10 mg/kg morphine s.c.; 95% CI in parentheses.
For series [7], the target named is T1, human kappa opioid receptor (Homo sapiens, UniProt P41145).
T1 construct: membrane protein
Briefly: Competition radioligand binding vs 3H-diprenorphine, kappa opioid receptor. As to conditions: up to a 10 μM concentration.

Series [8] is described as follows: in vitro. Format: in vitro ADME. The note with it: male, human, microsomes. As to the method: (§2) Metabolic stability of lead compounds was assessed in vitro by the method of Di et al.[32]. Briefly, mouse liver microsomes (Corning Life Sciences, Woburn, MA) were isolated from CD-1 mice (male mice, 8 − 10 weeks of age). Assays were conducted using 0.123 mg/mL protein concentration (total protein concentration in the microsomal solution) and 1.0 μM drug concentration under incubation conditions of 37 °C. Metabolic stability was determined following 0, 5, 15, 30, and 60 min of incubation time. The samples were analyzed by reversed phase LC using a triple quadrupole mass spectrometer. Compound specific transitions of parent ion to product ion were monitored and percent remaining calculated based on peak area of 5 − 60 min time points (relative to time zero). Half-life calculations were determined using the formula t½ = − ln(2)/k, where k (min^−1) is the turnover rate constant (the slope) estimated from a log − linear regression of the percentage compound remaining versus time.
Metabolic stability of the compounds in human liver microsomes was determined by the method described above using pooled human liver microsome preparations from 20 male donors (Corning Life Sciences, Woburn, MA). Assays were conducted as described above and the in vitro half-life of the compounds was calculated. […]

Series [9] is described as follows: in vitro. The class given is in vitro ADME, CD-1 mice. The note with it: male, CD-1, mouse, microsomes. The protocol: as §2
LC − MS/MS analysis was conducted using an Agilent (Santa Clara, CA) 6460 triple quadrupole mass spectrometer coupled with an Agilent liquid chromatography (LC) system. The LC system consists of a binary pump, degasser, column heater, and autosampler. […]

Another series can be described thus: physchem. The class given is physicochemical. As to the method:
Distribution coefficient (LogD) was determined by the method of Wilson et al.[30]. Briefly, 5 µL volumes of test compounds diluted in DMSO were added to a mixture of equal volumes of 50 mM phosphate buffer and 1-octanol. The compounds were assayed using a 50 nM concentration in order to limit compound precipitation and to ensure that the assay values were maintained within the dynamic range of the LC–MS/MS instrumentation. Samples were vortex mixed at 800 rpm for 24 h. Subsequent to centrifugation at 14,000 rpm for 30 min, 1 µL of each layer was analyzed by LC–MS/MS. LogD was calculated using the peak areas obtained from each layer.
LC − MS/MS analysis was conducted using an Agilent (Santa Clara, CA) 6460 triple quadrupole mass spectrometer coupled with an Agilent liquid chromatography (LC) system. The LC system consists of a binary pump, degasser, column heater, and autosampler. Chromatographic separation was performed on a Waters Atlantis T3 3 µm 3.0 × 50 mm analytical column using a ballistic gradient of mobile phase consisting of 0.1% formic acid in water (A) and 0.1% formic acid in acetonitrile (B) at a flow rate of 0.75 mL/min. The mobile phase was heated to a temperature of 45 °C.

Series [10] relates to CD-1 mice. As to conditions: mouse, in vivo.
For series [11], the target named is T2, human delta opioid receptor (Homo sapiens, UniProt P41143).
T2 construct: membrane protein
Put plainly: Competition radioligand binding vs 3H-diprenorphine, delta opioid receptor. As to conditions: up to a 10 μM concentration.

The target in the next series is T3, human mu opioid receptor (Homo sapiens, UniProt P35372).
T3 construct: membrane protein
The class given is binding. The note with it: up to a 10 μM concentration.

Where [12] appears, read: daily 0.01 nmol KU-32 i.t., tail flick.
The mark [13] stands for this setting: 0.01 nmol KU-32 i.t. vs Vehicle.

Structures can show the parent of a compound that is named as a salt.

As for `CO[C@@H]1[C@@H](O)[C@@H](O)[C@H](Oc2ccc3cc(NC(C)=O)c(=O)oc3c2C)OC1(C)C` [KU-32], the “baseline nociception (tail flick baseline responses)” value in the series on CD-1 mice [1] (0.01 nmol i.t. daily, 7-day regimen) is “not altering baseline nociception”. For the same compound, the “rescue of established morphine tolerance” value in the series on CD-1 mice [1] (3 days twice daily 10 mg/kg morphine s.c., 0.01 nmol i.t. on day 3, 24 h, 10 mg/kg morphine on day 4) is given as “full anti-nociceptive response to morphine, comparable to their day 1 response”. Also, in the series on CD-1 mice [1] (setting [12]), the “A50 of morphine, Day 1 of tolerance regimen” value was 1.9 (1.3–2.5) mg/kg and the “A50 of morphine, Day 4 of tolerance regimen” value was 5.5 (3.5–12) mg/kg. Also, in the series with CD-1 mice [2] (0.01 nmol KU-32 i.t. on day 20, 24 h, then 0.32–10 mg/kg morphine s.c.), the “A50 (morphine anti-nociceptive potency), HIV neuropathy” value is given as 1.2 (0.87–1.5) mg/kg. Moreover, in the series with CD-1 mice [2] (setting [13]), the “fold increase in morphine potency, HIV neuropathy” value is on record as 3.5 fold. In addition, in the series with CD-1 mice [3] (setting [13]), the “fold increase in morphine potency, tail flick” value came out at 1.9 fold. For the same compound, the “A50 (morphine anti-nociceptive potency), tail flick” value in the series on CD-1 mice [3] (0.01 nmol KU-32 i.t., 24 h, then 1–10 mg/kg morphine s.c., %MPE, 95% CI in parentheses) is recorded as 1.6 (1.3–2.0) mg/kg. Further, the “fold increase in morphine potency, paw incision” value in the series on CD-1 mice [4] (setting [13]) is listed as 2.8 fold. In addition, the “A50 (morphine anti-nociceptive potency), paw incision” value in the series on CD-1 mice [4] (0.01 nmol KU-32 i.t., 24 h, then 0.32–5.6 mg/kg morphine s.c., %MPE, 95% CI in parentheses) is on record as 0.85 (0.64–1.1) mg/kg.

With `Cc1ccc(Sc2cc(C(=O)N3Cc4ccccc4C3)ccc2O)cc1C` [KUNA115], the “effect on morphine tail flick anti-nociception, isoform-selective inhibitor i.t.” value in the series with CD-1 mice [3] (0.01 nmol i.t., 24 h, then 3.2 mg/kg morphine s.c.) is recorded as “significant anti-nociceptive elevation”. Further, the “effect of systemic Hsp90α inhibitor on morphine anti-nociception, paw incision” value in the series on CD-1 mice [4] (1 mg/kg i.v., 24 h, then 3.2 mg/kg morphine s.c.) is given as “completely blocked anti-nociception”.

In the case of `CN1CC[C@]23c4c5ccc(O)c4O[C@H]2[C@@H](O)C=C[C@H]3[C@H]1C5` [morphine, Morphine sulfate pentahydrate, reference compound], the “A50 of morphine, Day 1 of tolerance regimen” value with CD-1 mice [1] (daily Vehicle i.t., tail flick) is reported as 5.2 (3.9–7.5) mg/kg. Besides, the “A50 of morphine, Day 4 of tolerance regimen” value in the series with CD-1 mice [1] (daily Vehicle i.t., tail flick) is on record as 110 (30–6300) mg/kg. Moreover, in the series on CD-1 mice [2] (Vehicle i.t. on day 20, 24 h, then morphine s.c.), the “A50 (morphine anti-nociceptive potency), HIV neuropathy” value is listed as 4.2 (3.7–4.8) mg/kg. Moreover, in the series on CD-1 mice [5] (1 mg/kg morphine s.c.), the “constipation compared to saline-injected controls” value was ~ 40%. Moreover, in the series on CD-1 mice [5] (3.2–10 mg/kg morphine s.c.), the “constipation compared to saline-injected controls (plateau)” value is reported as ~ 70%. The “A50 (morphine constipation potency)” value with CD-1 mice [5] (Vehicle i.t., 24 h, then morphine s.c., 6-h AUC, %MPE, 95% CI in parentheses) is 0.67 (0.32–0.94) mg/kg. The “A50 (morphine anti-nociceptive potency), tail flick” value in the series on CD-1 mice [3] (Vehicle i.t., 24 h, then 1–10 mg/kg morphine s.c., %MPE, 95% CI in parentheses) is 3.0 (2.5–3.7) mg/kg; with CD-1 mice [3] (Vehicle i.v. (control of KUNB106 experiment, Fig. 9E), 24 h, then 1–5.6 mg/kg morphine s.c.), 5.6 (4.4–∞) mg/kg; with CD-1 mice [3] (Vehicle i.v. (control of KUNG65 experiment, Fig. 8F), 24 h, then 1–5.6 mg/kg morphine s.c.), 3.6 (2.9–4.6) mg/kg. The “A50 (morphine anti-nociceptive potency), paw incision” value is 2.4 (2.0–2.8) mg/kg in the series with CD-1 mice [4] (Vehicle i.t., 24 h, then morphine s.c., %MPE, 95% CI in parentheses); 2.5 (2.0–∞) mg/kg with CD-1 mice [4] (Vehicle i.v. (control of KUNB106 experiment, Fig. S7B), then 1–3.2 mg/kg morphine s.c.); 2.0 (1.4–3.0) mg/kg in the series with CD-1 mice [4] (Vehicle i.v. (control of KUNG65 experiment, Fig. S6B), then 1–3.2 mg/kg morphine s.c.). Further, the “A50 (morphine reward potency, CPP % Difference Score)” value in the series on CD-1 mice [6] is 5.1 (2.7–7.7) mg/kg.

With `CCCc1cc2cc(-n3nc(C)c4c3CC(C)(C)CC4=O)cc(N3CCC(O)CC3)c2c(=O)[nH]1` [KUNB106], in series [7], the “binding to kappa opioid receptor (competition vs 3H-diprenorphine)” value is “did not find any binding”. Further, the “rescue of established morphine tolerance, systemic inhibitor” value in the series on CD-1 mice [1] (3 days twice daily 10 mg/kg morphine s.c., 1 mg/kg i.v. on day 3, 24 h, 10 mg/kg morphine s.c., tail flick) is reported as “rescued established tolerance”. Besides, the results for the half-life at 1 µM in the series “in vitro [8]” and in “in vitro [9]” were 2.6 h and 1.05 h, respectively. In the series “physchem”, this compound yielded a logD at 24 h of 2.26. Further, the “effect on respiratory activity before and after morphine” value in the series on CD-1 mice [10] was “no impact on respiratory activity before or after morphine”. Also, the “naloxone reversibility of inhibitor-enhanced morphine pain relief” value with CD-1 mice [3] (1 mg/kg i.v., 24 h, 2 mg/kg naloxone i.p. 10 min, 3.2 mg/kg morphine s.c., tail flick) is “fully naloxone-reversible”. In addition, in the series on CD-1 mice [3] (1 mg/kg inhibitor i.v., 24 h, then 1–5.6 mg/kg morphine s.c., peak %MPE, 95% CI in parentheses), the “A50 (morphine anti-nociceptive potency), tail flick, systemic inhibitor” value is on record as 1.7 (1.1–2.3) mg/kg. In the series on CD-1 mice [3] (10 mg/kg i.v. vs 1 mg/kg i.v., 24 h, then 3.2 mg/kg morphine s.c.), the “effect of higher 10 mg/kg dose on morphine pain relief (tail flick)” value is recorded as “less benefit than 1 mg/kg”. Also, in series [11], the “binding to delta opioid receptor (competition vs 3H-diprenorphine)” value is “did not find any binding”. Further, the “binding to mu opioid receptor (competition vs 3H-diprenorphine)” value at human mu opioid receptor was “did not find any binding”.
